The target in one experiment is T1, ObiF2 (Burkholderia diffusa, UniProt Z9YLO8D081).
T1 sequence (Z9YLO8D081 1-545): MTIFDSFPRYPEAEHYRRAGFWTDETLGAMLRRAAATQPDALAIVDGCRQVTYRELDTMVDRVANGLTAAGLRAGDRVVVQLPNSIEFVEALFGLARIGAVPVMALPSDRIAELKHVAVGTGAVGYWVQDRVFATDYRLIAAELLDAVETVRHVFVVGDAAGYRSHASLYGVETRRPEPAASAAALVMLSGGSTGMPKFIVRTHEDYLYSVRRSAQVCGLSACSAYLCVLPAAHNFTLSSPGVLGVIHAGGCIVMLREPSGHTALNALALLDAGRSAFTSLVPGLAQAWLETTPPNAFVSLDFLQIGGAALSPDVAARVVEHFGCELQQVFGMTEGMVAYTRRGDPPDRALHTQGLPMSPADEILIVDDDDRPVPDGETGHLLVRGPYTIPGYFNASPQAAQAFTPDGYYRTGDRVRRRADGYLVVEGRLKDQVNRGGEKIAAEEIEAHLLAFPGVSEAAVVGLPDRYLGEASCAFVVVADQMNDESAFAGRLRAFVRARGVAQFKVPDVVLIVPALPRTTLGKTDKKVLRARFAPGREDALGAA
The experiment in a line: coupled ObiF1/F2/D/H reconstitution, LCMS of acyl adenylate and product ions. The format is biochemical.

Experiment [1] has as its target T2, ObiF1 (Burkholderia diffusa, UniProt A0A5H1ZR44).
T2 construct: full-length NRPS module C-A-PCP-TE-MLP (last residue Val1390), N-terminal His6, E. coli BL21(DE3), holo form (phosphopantetheinylated with Sfp and CoA); codon-optimised synthetic gene
The experiment in a line: X-ray crystal structure, […] Å. Format: binding. The conditions noted are these: holo-ObiF1 co-crystallised with 2 mM ligand; bound in A domain active site (adenylate-forming conformation).

Experiment [2] deals with ObiF1-del1304 (ObiF1 C-A-PCP-TE, terminated after Leu1303, without the MLP domain) (Burkholderia diffusa).
In a further experiment the target is T3, ObiH (Burkholderia diffusa, UniProt Z9H1N4SZ53).
T3 sequence (Z9H1N4SZ53 1-440): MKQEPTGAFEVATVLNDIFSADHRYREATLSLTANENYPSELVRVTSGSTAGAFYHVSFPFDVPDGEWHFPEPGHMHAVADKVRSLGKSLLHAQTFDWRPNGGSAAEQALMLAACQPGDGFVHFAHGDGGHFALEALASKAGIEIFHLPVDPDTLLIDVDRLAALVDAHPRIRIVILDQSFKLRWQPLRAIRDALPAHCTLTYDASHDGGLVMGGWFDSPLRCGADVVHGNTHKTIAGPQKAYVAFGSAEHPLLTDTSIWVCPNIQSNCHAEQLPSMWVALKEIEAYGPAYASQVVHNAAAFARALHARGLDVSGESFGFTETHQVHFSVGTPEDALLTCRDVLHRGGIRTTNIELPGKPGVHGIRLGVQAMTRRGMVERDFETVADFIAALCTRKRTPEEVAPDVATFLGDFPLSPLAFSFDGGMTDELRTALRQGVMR
The experiment is described as follows: LCMS detection of the β-hydroxy-α-amino acid product in coupled assay. Format: biochemical.

The target in experiment [3] is T2, ObiF1. The experiment in a line: coupled ObiF1/F2/D/H reconstitution, LCMS product ion counts. The conditions noted are these: made in situ by ObiH from phenylacetaldehyde and L-Thr; 1 µM holo-ObiF1, 5 mM ATP, 2,3-DHB, GSH or DTT trap, pH 7.5, room temperature. The format is biochemical.

This is an account of results in article PMC6668435, “The structural basis of N-acyl-α-amino-β-lactone formation catalyzed by a nonribosomal peptide synthetase” (Nature Communications, 2019).

Consider `O=C(O)c1ccccc1O` [3c, 2-OH benzoic acid], for which the “coupled ObiF1/F2/D/H reconstitution, LCMS of acyl adenylate and product ions” value at ObiF2 was 2-OH and 3-OH benzoic acids (3c and 3d) were both activated and converted efficiently.

Take `N[C@H](C(=O)O)[C@H](O)Cc1ccc([N+](=O)[O-])cc1` [β-OH-p-NO2-homoPhe, (2S,3R)-β-hydroxy-p-nitro-homophenylalanine]: the “X-ray crystal structure, 3.0 Å” value at ObiF1 [1] is “β-OH-p-NO2-homoPhe binds in the A domain active site”.

Molecule “ObiF1 MLP domain, residues 1304-1390, co-expressed in trans from the construct ObiF1 rbs1303/4 (domain or fragment)” came in with a product ion counts by LCMS in the ObiF1/F2/D/H reconstitution assay, protein sample rbs1303/4 (C-A-PCP-TE co-expressed with the MLP domain), no MLP added (fold lower than WT) in experiment [2] of 4.

Take `O=CCc1ccccc1` [1a, phenylacetaldehyde]: the “LCMS detection of the β-hydroxy-α-amino acid product in coupled assay” value at ObiH is “Starting from phenylacetaldehyde (PAA), the L-Thr transaldolase ObiH generates”.

With `N[C@H](C(=O)O)[C@H](O)Cc1ccccc1` [2a, β-OH-homoPhe], the “coupled ObiF1/F2/D/H reconstitution, LCMS product ion counts” value on ObiF1 [3] is “The best substrates for ObiF1 were β-hydroxy-α-amino acids (2a, 2b) derived from phenylacetaldehydes”.
